According to US6589993B2, “Treating vancomycin-intermediates and multiresistant staphylococci infection with thiamphenicol or a salt thereof” (Zambon Group S.p.A., priority 2000, dated 2003):

Assays:
[1] = test system: S. aureus Met-R multiresistant strains; assay: MIC determination (NCCLS broth microdilution), methicillin-resistant multiresistant S. aureus strains; type: cell-based, Staphylococcus aureus; conditions: for MIC: antibiotype Oxa, Ery
In short: (§1)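 NCCLS broth microdilution in cation-supplemented Mueller-Hinton broth, final inoculum 5×10^5 from exponential-phase bacteria; 2% NaCl added for methicillin testing. MIC taken as lowest concentration preventing visible growth after 18–24 h at 37 °C, with S. aureus ATCC 29213 as QC strain.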

[2] = test system: S. aureus vancomycin-intermediates (VISA) Met-R strains; assay: MIC determination (NCCLS broth microdilution), VISA Met-R strains; type: cell-based, Staphylococcus aureus; conditions: for MIC: antibiotype Oxa, Cip, Clin, Ery
In short: as §1

## teicoplanine
[1]; S. aureus (50) Met-R
  MIC 50%: 0,5 mg/l
  MIC 90%: 1 µg/mL
  MIC Range: 0,12-2 mg/l
[1]; S. aureus (50) Met-R, NCCLS (1999) breakpoints
  % susceptible at breakpoint: 100%
[1]; Strain 1, Cip, Clin, Gm
  MIC: 0.25 µg/mL
[1]; Strain 2, Clin, Fos
  MIC: 0.5 µg/mL
[1]; Strain 3, Cip, Clin, Gm
  MIC: 1 µg/mL
[1]; Strain 4, Cip, Gm
  MIC: 0.5 µg/mL
[1]; Strain 5, Cip, Clin
  MIC: 1 µg/mL
[1]; Strain 6, Clin, Gm
  MIC: 1 µg/mL
[1]; Strain 7, Cip, Gm
  MIC: 0.25 µg/mL
[1]; Strain 8, Cip, Clin
  MIC: 0.25 µg/mL
[1]; Strain 9, Cip, Clin, Gm
  MIC: 0.25 µg/mL
[1]; Strain 10, Cip, Clin, Gm
  MIC: 0.25 µg/mL
[1]; Strain 11, Clin, Rif
  MIC: 1 µg/mL
[1]; Strain 12, Cip, Clin
  MIC: 1 µg/mL
[1]; Strain 13, Cip, Clin
  MIC: 1 µg/mL
[1]; Strain 14, Clin, Cip
  MIC: 0.5 µg/mL
[1]; Strain 15, Cip, Clin, Gm
  MIC: 0.25 µg/mL
[1]; Strain 16, Cip, Clin
  MIC: 1 µg/mL
[1]; Strain 17, Cip, Clin
  MIC: 0.25 µg/mL
[1]; Strain 18, Cip, Clin, Gm
  MIC: 1 µg/mL
[1]; Strain 19, Cip, Clin, Gm
  MIC: 1 µg/mL
[1]; Strain 20, Cip, Clin, Gm
  MIC: 0.25 µg/mL
[1]; Strain 21, Cip, Clin, Gm
  MIC: 0.5 µg/mL
[1]; Strain 22, Cip, Clin
  MIC: 0.25 µg/mL
[1]; Strain 23, Cip, Clin, Gm
  MIC: 0.5 µg/mL
[1]; Strain 24, Cip, Clin, Gm
  MIC: 0.5 µg/mL
[1]; Strain 25, Cip, Clin, Gm
  MIC: 1 µg/mL
[1]; Strain 26, Cip, Clin, Fos, Gm
  MIC: 1 µg/mL
[1]; Strain 27, Cip, Clin, Fos, Gm
  MIC: 1 µg/mL
[1]; Strain 28, Cip, Clin, Gm
  MIC: 0.5 µg/mL
[1]; Strain 29, Clin, Fos
  MIC: 0.5 µg/mL
[1]; Strain 30, Cip, Clin, Gm, SXT, Dox
  MIC: 1 µg/mL
[1]; Strain 31, Cip, Clin, Fox, Gm
  MIC: 0.5 µg/mL
[1]; Strain 32, Cip, Clin, Gm, SXT, Rif
  MIC: 0.5 µg/mL
[1]; Strain 33, Cip, Clin, Gm
  MIC: 0.5 µg/mL
[1]; Strain 34, Cip, Clin, Gm
  MIC: 0.25 µg/mL
[1]; Strain 35, Cip, Clin, Gm
  MIC: 0.5 µg/mL
[1]; Strain 36, Cip, Clin, Fos
  MIC: 1 µg/mL
[1]; Strain 37, Cip, Clin, Fos, Gm
  MIC: 0.25 µg/mL
[1]; Strain 38, Cip, Gm
  MIC: 0.25 µg/mL
[1]; Strain 39, Cip, Clin, Fos, Gm
  MIC: 0.25 µg/mL
[1]; Strain 40, Cip, Clin, Gm
  MIC: 0.25 µg/mL
[1]; Strain 41, Cip, Clin
  MIC: 0.25 µg/mL
[1]; Strain 42, Cip, Clin, Gm
  MIC: 0.12 µg/mL
[1]; Strain 43, Cip, Clin, Gm
  MIC: 0.5 µg/mL
[1]; Strain 44, Cip, Clin, Gm, Rif, Dox
  MIC: 1 µg/mL
[1]; Strain 45, Cip, Clin, Gm, Rif, Dox, Fos
  MIC: 0.5 µg/mL
[1]; Strain 46, Clin, Fos
  MIC: 0.25 µg/mL
[1]; Strain 47, Cip, Clin, Gm
  MIC: 0.12 µg/mL
[1]; Strain 48, Cip, Clin
  MIC: 2 µg/mL
[1]; Strain 49, Cip, Gm
  MIC: 0.5 µg/mL
[1]; Strain 50, Cip, Clin, Gm, Rif, Dox
  MIC: 0.5 µg/mL
[2]; Strain 51 VISA
  MIC: 8 µg/mL
[2]; Strain 52 VISA
  MIC: 8 µg/mL
[2]; VISA (2) Met-R
  MIC Range: 8 µg/mL
[2]; VISA (2) Met-R, NCCLS (1999) breakpoints
  % susceptible at breakpoint: 100%
